Test results published in patent publication US20090143438A1, “Novel Pyridine Derivative Having Anti-Helicobacter Pylori Activity” (Arigen Pharmaceuticals, Inc., priority 2006, published 2009).
≈ marks a conversion by molar mass, not a printed value. Read-outs that look alike come from different tables or passages of the source.

Assays:
[1] = tested on: H. pylori ofloxacin- and roxithromycin-resistant clinical isolate TY2; test: In vitro MIC test in Columbia agar, resistant clinical isolate; assay type: cell-based; conditions: Helicobacter pylori, 72 h; resistant strain TY2; 37° C., pH 7.0, 3 days
Procedure: (§1) An in vitro test was performed in a Columbia agar medium using standard strains of H. pylori, NCTC 11637 and 11916, clinical isolates PT#1045482, PT#1045483 and PT#1045484, and ofloxacin- and roxithromycin-resistant, clinical isolates TY2, 4 and 5. Each of the test objects was dissolved in a 1% DMSO solution. Furthermore, as antibiotic control drugs, roxithromycin from the macrolide family and ofloxacin from the new quinolone family were used. The strains were cultured at 37° C. and pH 7.0 for 3 days, and on the 4th day, the minimum inhibitory concentrations (MIC, μg/ml) were determined.

[2] = tested on: H. pylori ofloxacin- and roxithromycin-resistant clinical isolate TY4; test: as above; assay type: cell-based; conditions: Helicobacter pylori, 72 h; resistant strain TY4; 37° C., pH 7.0, 3 days
Procedure: as §1

[3] = tested on: H. pylori ofloxacin- and roxithromycin-resistant clinical isolate TY5; test: as above; assay type: cell-based; conditions: Helicobacter pylori, 72 h; resistant strain TY5; 37° C., pH 7.0, 3 days
Procedure: as §1

[4] = tested on: Escherichia coli (ATCC 10536); test: In vitro antibacterial test against various bacteria, MIC; assay type: cell-based; conditions: 20 to 48 hours
Procedure: (§2) An in vitro antibacterial test for the compounds of Examples 1 to 6 against various bacteria was performed. As gram-negative bacteria, Escherichia coli (ATCC 10536, ATCC 25922), Klebsiella pneumonia (ATCC 10031), Proteus vulgaris (ATCC 13315), Pseudomonas aeruginosa (ATCC 9027), Salmonella typhimurium (ATCC 13311), and as gram-positive bacteria, Staphylococcus aureus, MRSA (ATCC 33591), Staphylococcus epidermidis (ATCC 12228), Streptococcus pneumonia (ATCC 6301), Mycobacterium ranae (ATCC 110) and Enterococcus faecalis (VRE, ATCC 51575) were used. The various bacteria were cultured at 37° C. for 20 to 48 hours by conventional methods, and the minimum inhibitory concentrations (MIC, μg/ml) were determined. Each of the test objects were dissolved in a 1% DMSO solution. Furthermore, as an antibiotic control drug, gentamycin (GEM) from the aminoglycoside family was used.

[5] = tested on: Streptococcus pneumonia (ATCC 6301); test: as above; assay type: cell-based; conditions: Streptococcus pneumoniae, ATCC6301, 37° C., 20 to 48 hours
Procedure: as §2

[6] = tested on: Escherichia coli (ATCC 25922); test: as above; assay type: cell-based; conditions: 20 to 48 hours
Procedure: as §2

[7] = tested on: Enterococcus faecalis (VRE, ATCC 51575); test: as above; assay type: cell-based; conditions: 37° C., 20 to 48 hours
Procedure: as §2

[8] = tested on: Staphylococcus aureus, MRSA (ATCC 33591); test: as above; assay type: cell-based; conditions: 37° C., 20 to 48 hours
Procedure: as §2

[9] = tested on: Klebsiella pneumonia (ATCC 10031); test: as above; assay type: cell-based; conditions: 20 to 48 hours
Procedure: as §2

[10] = tested on: Pseudomonas aeruginosa (ATCC 9027); test: as above; assay type: cell-based; conditions: 20 to 48 hours
Procedure: as §2

[11] = tested on: Proteus vulgaris (ATCC 13315); test: as above; assay type: cell-based; conditions: 20 to 48 hours
Procedure: as §2

[12] = tested on: Salmonella typhimurium (ATCC 13311); test: as above; assay type: cell-based; conditions: 37° C., 20 to 48 hours
Procedure: as §2

[13] = tested on: Mycobacterium ranae (ATCC 110); test: as above; assay type: cell-based; conditions: 20 to 48 hours
Procedure: as §2

[14] = tested on: Staphylococcus epidermidis (ATCC 12228); test: as above; assay type: cell-based; conditions: 20 to 48 hours
Procedure: as §2

[15] = tested on: H. pylori clinical isolate PT#1045483; test: In vitro MIC test in Columbia agar, clinical isolate; assay type: cell-based; conditions: Helicobacter pylori, 72 h, 37° C., pH 7.0, 3 days
Procedure: as §1

[16] = tested on: H. pylori clinical isolate PT#1045484; test: as above; assay type: cell-based; conditions: Helicobacter pylori, 72 h, 37° C., pH 7.0, 3 days
Procedure: as §1

[17] = tested on: H. pylori clinical isolate PT#1045482; test: as above; assay type: cell-based; conditions: Helicobacter pylori, 72 h, 37° C., pH 7.0, 3 days
Procedure: as §1

H. pylori NCTC 11916 = test: In vitro MIC test in Columbia agar, standard strain; assay type: cell-based, Helicobacter pylori; conditions: for MIC: Helicobacter pylori, NCTC11916, 72 h, standard strain NCTC 11916, 37° C., pH 7.0, 3 days
Procedure: as §1

H. pylori NCTC 11637 = test: as above; assay type: cell-based, Helicobacter pylori; conditions: for MIC: Helicobacter pylori, NCTC11637, 72 h, standard strain NCTC 11637, 37° C., pH 7.0, 3 days
Procedure: as §1

H. pylori, ATCC 43504 = test: Antibacterial power test, Columbia agar, MIC; assay type: cell-based, Helicobacter pylori; conditions: 37° C., pH 7.0, 3 days, read on 4th day; for MIC: Helicobacter pylori, ATCC43504, 72 h, read-out: MIC, in vitro anti-Helicobacter pylori activity
Procedure: An in vitro test was performed in a Columbia agar medium using a standard strain of H. pylori, ATCC 43504. […] Each of the test objects was dissolved in a 1% DMSO solution. Furthermore, as antibiotic control drugs, ampicillin from the penicillin family (control drug 1), gentamycin from the aminoglycoside family (control drug 2), tetracycline from the tetracycline family (control drug 3), and ofloxacin from the new quinolone family (control drug 4) were used.

[18] = tested on: various gram-negative bacteria and gram-positive bacteria; test: In vitro antibacterial test against various bacteria, overall statement; assay type: cell-based; conditions: bacteria of Table 4
Procedure: as §2

[19] = ATCC10536, 37° C., read-out: MIC
[20] = ATCC25922, 37° C., read-out: MIC
[21] = Klebsiella pneumoniae, ATCC10031, 37° C., read-out: MIC
[22] = ATCC9027, 37° C., read-out: MIC
[23] = ATCC13315, 37° C., read-out: MIC
[24] = Salmonella enterica, read-out: MIC
[25] = ATCC12228, 37° C., read-out: MIC

Compound	MIC [1]	MIC [2]	MIC [3]	MIC [4, 19]	MIC [5]	MIC [6, 20]	MIC [7]	MIC ([8]; read-out: MIC)	MIC [9, 21]	MIC [10, 22]	MIC [11, 23]	MIC [12, 24]	MIC ([13]; ATCC110, 37° C., read-out: MIC)	MIC [14, 25]	MIC [15]	MIC [16]	MIC [17]	MIC (H. pylori NCTC 11916)	MIC (H. pylori NCTC 11637)	MIC (H. pylori, ATCC 43504)	other results
Cc1c(OCCCCCCCCO)ccnc1CSc1nc2ccccc2[nH]1 [Example 4, 2-[{4-(8-hydroxyoctyloxy)-3-methylpyridin-2-yl}methylthio]-1H-benzimidazole]	0.03 mg/L (≈ 0.0751 µM)	0.1 mg/L (≈ 0.25 µM)	0.03 mg/L (≈ 0.0751 µM)	> 100 mg/L	> 100 mg/L	> 100 mg/L	> 100 mg/L	> 100 mg/L	> 100 mg/L	> 100 mg/L	> 100 mg/L	> 100 mg/L	> 100 mg/L	> 100 mg/L	0.03 mg/L (≈ 0.0751 µM)	0.03 mg/L (≈ 0.0751 µM)	0.03 mg/L (≈ 0.0751 µM)	0.03 mg/L (≈ 0.0751 µM)	0.03 mg/L (≈ 0.0751 µM)	0.03 mg/L (≈ 0.0751 µM)	activity compared to the compounds (e) and (f) (H. pylori NCTC 11916; standard strain NCTC11916): 52 fold; activity compared to the compounds (e) and (f) (H. pylori NCTC 11637; standard strain NCTC11637): 26.6 fold
Cc1c(OCCCCCCCCCO)ccnc1CSc1nc2ccccc2[nH]1 [Example 5, 2-[{4-(9-hydroxynonyloxy)-3-methylpyridin-2-yl}methylthio]-1H-benzimidazole]	0.1 mg/L (≈ 0.242 µM)	0.3 mg/L (≈ 0.725 µM)	0.2 mg/L (≈ 0.484 µM)	> 100 mg/L	> 100 mg/L	> 100 mg/L	> 100 mg/L	> 100 mg/L	> 100 mg/L	> 100 mg/L	> 100 mg/L	> 100 mg/L	> 100 mg/L	> 100 mg/L	0.1 mg/L (≈ 0.242 µM)	0.1 mg/L (≈ 0.242 µM)	0.2 mg/L (≈ 0.484 µM)	0.1 mg/L (≈ 0.242 µM)	0.1 mg/L (≈ 0.242 µM)	0.1 mg/L (≈ 0.242 µM)	
Cc1c(OCCCCCCCCCCO)ccnc1CSc1nc2ccccc2[nH]1 [Example 6, 2-[{4-(10-hydroxydecyloxy)-3-methylpyridin-2-yl}methylthio]-1H-benzimidazole]	0.3 mg/L (≈ 0.702 µM)	0.3 mg/L (≈ 0.702 µM)	0.3 mg/L (≈ 0.702 µM)	> 100 mg/L	> 100 mg/L	> 100 mg/L	> 100 mg/L	> 100 mg/L	> 100 mg/L	> 100 mg/L	> 100 mg/L	> 100 mg/L	> 100 mg/L	> 100 mg/L	0.3 mg/L (≈ 0.702 µM)	0.3 mg/L (≈ 0.702 µM)	0.3 mg/L (≈ 0.702 µM)	0.2 mg/L (≈ 0.468 µM)	0.3 mg/L (≈ 0.702 µM)	0.3 mg/L (≈ 0.702 µM)	
gentamycin [Control Drug 2 (Gentamycin), reference compound]																					MIC ([4]; 37° C.): 0.3 mg/L; MIC ([6]; 37° C.): 1.0 mg/L; MIC [8]: 1.0 mg/L; MIC ([9]; 37° C.): 1.0 mg/L; MIC ([10]; 37° C.): 0.3 mg/L; MIC ([11]; 37° C.): 0.3 mg/L; MIC [12]: 1.0 mg/L; MIC ([13]; 37° C.): 0.3 mg/L; MIC ([14]; 37° C.): 0.1 mg/L; antibacterial action against various gram-negative and gram-positive bacteria (in words) [18]: strong antibacterial action; MIC, in vitro anti-Helicobacter pylori activity (H. pylori, ATCC 43504): 0.3 mg/L
